Where “and” joins values, the source holds several entries; their conditions need not be identical. Equal entries are not always repeated. Entries after “also recorded” stand apart in the source; their conditions may differ.
Columns and labels:
[1] = system: human neuroblastoma cells (NPG.Luc cells); assay: NIR confocal microscopy of imaging agent uptake by neuroblastoma cells; assay type: cell-based; conditions: 50 μmolar, incubated overnight at 37° C., ex/em 765/810 nm
Protocol: Cell lines. Human neuroblastoma cancer cell lines NB1691.1uc and SYFY.luc were cultured in Dulbecco's Modified Eagle's Medium supplemented with high glucose and F12 nutrient (DMEM/F12, Invitrogen, Carlsbad, Calif.) with 10% fetal bovine serum (Hyclone, Logan, Utah) in a humidified incubator maintained at 37° C. with 5% CO2.
Confocal microscope imaging. Cells were harvested from culture and incubated overnight at 37° C. with W765-BG imaging agent or NIR dye at final concentrations of 50 μmolar. Cells were washed in PBS, then incubated for 15 min at 4° C. with Sytox green (Molecular Probes) in 95% ethanol to fix the cells and stain cell nuclei. Stained cells were then transferred to a slide and mounted for microscopic examination. Images were recorded using an Olympus confocal microscope (Model: Fluorview 1000, Olympus America, Center Valley, Pa., USA). The microscope was equipped with excitation (Ex) light source and emission (Em) filters to detect and separate W765-BG or NIR dye (ex/em 765/810 nm) and cell nuclei (ex/em 488/510 nm) signals. In the microscopic images, signal intensities were recorded from one slice of 23 cell z-stacks with 0.5 micrometers gaps. Sytox green and W765-BG or NIR dye signals were pseudo colored into green (emission at 510 nm) and red (emission at 810 nm), respectively.
Imaging of W765-BG in neuroblastoma cells. To evaluate W765-BG as a potential specific molecule, its ability to uptakes by neuroblastoma cells was examined in vitro by NIR confocal microscopy. NPG.Luc cells were treated with W765-BG or free dye overnight at 37° C., after which they were washed, fixed, and visualized by confocal microscopy.
In vitro cell uptake imaging agent. Imaging agent uptake by the cells was recorded by confocal microscopy. The images show cell morphology (FIG. 3A), cell nuclei (FIG. 3B), and W765-BG uptakes by cells (FIG. 3C). […] Those results were validated by non-overlaid NIR images (FIG. 3G and FIG. 3H).

NGP.Luc xenograft = assay: In vivo NIR optical imaging of NGP.Luc tumor xenografts in mice
Protocol: (§1) Tumor xenografts: Four- to six-week-old female nude mice (18-22 g) (Taconic, Hudson, N.Y.) were housed and fed with sterilized pellet chow and sterilized water. Animals were maintained in a pathogen-free mouse colony. Tumor cells near confluence were harvested by incubation with 0.05% trypsin-EDTA. Cells were pelleted by centrifugation at 130×g for 5 min and resuspended in sterile phosphate-buffered saline (PBS). Approximately 1 million cells were implanted subcutaneously into the hind leg region of the mice. A total of 15 mice was used in this study.
(§2) Animal imaging. Tumors were visualized by intraperitoneal injection of 3 mg of VivoGlo Luciferin (Promega, Madison Wis.) before the imaging session, and pseudo into cyan. Ten nanomoles of W765-BG and 3 nanomoles of the vascular agent RGD-Cy5.5 were injected i.v. into the tumor-bearing mice prior to the imaging study. The animals were imaged 1 to 9 days after the injection using the Kodak In-Vivo Multispectral System FX (Carestream Health Molecular Imaging, New Haven, Conn.). Vasculature images were recorded at wavelengths of ex/em 650/700 nm for RDG-Cy5.5 and pseudo colored into red. The W765-BG signal was recorded at wavelengths of ex/em 770/830 nm and pseudo colored into green. Tumor cells, vasculature, and W765-BG signals were precisely overlaid with anatomical X-ray images.
Imaging of W765-BG in human tumor xenografts in mice. […] Tumor-bearing mice received an intraperitoneal injection of Luciferin to visualize the tumor cells, followed by an intravenous injection of W765-BG from the tail vein. Whole body images were collected at 24 h intervals over the course of eight days. Tumors were visualized by white light, X-ray and luciferase imaging (FIG. 2). […] When merging the optical signal of W765-BG with luciferase and anatomic X-ray images (FIG. 2E-2F), their precise overlay confirms the specificity of W765-BG.
In contrast, the NGP.Luc tumor was rather diffuse without a clear margin in the early tumor growth phase (FIG. 4G). The tumor vasculature developed better than in the NB1691.Luc tumor. […] The diffused tumor growth pattern also limited the W765-BG imaging findings in this stage (FIG. 4I). Once again, the merged images show the location of the tumor cells and the vasculature status (FIG. 4J to FIG. 4L). One week later, the tumor cells became more concentrated in one location (FIG. 4M). The vasculature surrounding the tumor node was well formed (FIG. 4N) and the TBR of the vasculature agent increased to 1.90. […] The two imaging agents were distributed differently in the body (FIG. 4P). […] Merged X-ray and W765-BG images confirmed the tumor size, location and W765-BG signal intensity (FIG. 4Q).

NB1691.Luc xenograft = assay: In vivo NIR optical imaging of NB1691.Luc tumor xenografts in mice; conditions: 7 days post inoculation, 10 nmol W765-BG, 3 nmol RGD-Cy5.5 i.v.
Protocol: as §1
as §2, with “The animals were imaged 1 to 9 days after the injection using the Kodak In-Vivo Multispectral System FX (Carestream Health Molecular Imaging, New Haven, Conn.).” left out, “Tumor cells, vasculature, and W765-BG signals were precisely overlaid with anatomical X-ray images.” left out
In vivo imaging. Luciferase positive tumor cell could be detected as early as 4 days after inoculation (data not show). Different tumor growth patterns were detected at 7 days post inoculation. […]

[2] = system: human neuroblastoma xenograft; assay: Whole body and dissected organ imaging in the neuroblastoma xenograft mouse model (late stage tumor, imaging window); assay type: in vivo, mice
Protocol: as §1, §2
Late stage tumor, organ image and pathological analysis. Late stage tumor mass and organ imaging were performed after the injection of additional imaging agent (FIG. 5A-H). […] Gross necropsy confirmed the necrosis in the center of this tumor. H&E stain confirmed the identification of tumor (FIG. 5I), muscle (FIG. 5J), liver (FIG. 5K), kidney (FIG. 5L), and spleen (FIG. 5M) at pathological levels.

neuroblastomas = conditions: Maris et al., 2007; cited from earlier work

whole body location of NIR signal (NGP.Luc xenograft; 48 hours after administration (FIG. 2))	whole body distribution of agent signal (NGP.Luc xenograft; NGP.Luc, one week later than the early stage images (FIG. 4P))	time optical signals were retained in the tumor after injection (NGP.Luc xenograft; after which signal strength gradually diminished)	distribution of agent in dissected organs ([2]; late stage tumor, dissected organ images (FIG. 5F, 5G))	imaging window post injection ([2]; post injection) [days]	uptake by normal renal structures ([2]; retroperitoneal area, whole body images)	persistence of tumor specific optical signals once absorbed ([2]; xenograft mouse model)	SMILES	uptake of agent by neuroblastoma cells (NIR signal in cells, confocal microscopy) [1]	tumor to background ratio (NGP.Luc xenograft; 24 hours after injection)	tumor to background ratio (NGP.Luc xenograft; 48 hours after injection)	tumor to background ratio (NGP.Luc xenograft; 192 hours after injection)	tumor-to-background ratio (TBR) (NGP.Luc xenograft; NGP.Luc, early tumor growth phase (7 days post inoculation), 10 nmol W765-BG, 3 nmol RGD-Cy5.5 i.v.)	tumor-to-background ratio (TBR) (NGP.Luc xenograft; NGP.Luc, one week later than the early stage images)	tumor-to-background ratio (TBR) (NB1691.Luc xenograft)	whole body distribution of agent signal, late stage tumor ([2]; late stage tumor, after injection of additional imaging agent (FIG. 5B, 5C))	proportion of neuroblastomas in which the agent can be selectively concentrated (neuroblastomas)	uptake of agent by neuroblastoma cells (NIR signal in cells, confocal microscopy) ([1]; listed as NIR dye)
detected in tumor region only	mainly in the tumor region	about 48 hours	in the tumor, liver and spleen	8 to 9	did not take up	longer than one week	CC1(C)C(/C=C/C2=C(Oc3ccc(S(=O)(=O)O)cc3)C(=C/C=C3/N(CCCCCC(=O)NCC(=O)Nc4cccc(CNC(=N)N)c4)c4ccc(S(=O)(=O)O)cc4C3(C)C)/CCC2)=[N+](CCCCS(=O)(=O)O)c2ccc(S(=O)(=O)O)cc21 [Compound W765-BG, 2-(3-(IRdye800-Gly-amino)-benzyl)guanidine]	detected inside the cells; also recorded: internalized into cells; also recorded: take up the W765-BG agent; also recorded: high uptake	1.95	1.98	1.52	1.08	2.90 and 2.8	0.95	non-uniformly distributed in the tumor; also recorded: located only in the tumor region	–	–
–	–	–	–	–	–	–	N=C(N)NCc1cccc([131I])c1 [MIBG, meta-iodobenzylguanidine]	–	–	–	–	–	–	–	–	more than 90%	–
–	–	–	–	–	–	–	CC1(C)C(/C=C/C2=C(Oc3ccc(S(=O)(=O)O)cc3)C(=C/C=C3/N(CCCCS(=O)(=O)O)c4ccc(S(=O)(=O)[O-])cc4C3(C)C)/CCC2)=[N+](CCCCCC(=O)O)c2ccc(S(=O)(=O)O)cc21 [free dye, IRDye800CW carboxylate, reference compound]	almost no detectable signal	–	–	–	–	–	–	–	–	almost no detectable signal

Source: patent publication US20130224115A1, “NON-RADIOACTIVE AGENTS FOR NEUROBLASTOMA IMAGING” (Baylor College of Medicine, priority 2010, published 2013)
